From US20210205264A1, “USE OF DELTA-TOCOTRIENOL FOR TREATING CANCER” (H. LEE MOFFITT CANCER CENTER & RESEARCH INSTITUTE INC., priority 2018, published 2021)

Assays:
[1] = system: MiaPaCa-2 cells stably expressing hCAS; test: Cell death in MiaPaCa-2 cells stably over-expressing hCAS; type: cell-based, human; details: hCAS over-expression, p<0.02
Excerpt: To determine whether hCAS over-expression can rescue from δ-T3 effects, MiaPaCa-2 cells stably expressing hCAS were generated by transfecting these cells with the hCAS gene-containing plasmid pCMV6-AC-GFP (Cat #RG211478, […]) and selecting the cells stably expressing hCAS under G418 pressure. MiaPaCa-2 cells expressing the same plasmid without the hCAS gene were also generated as empty vector control. […] The inability of over-expression to entirely overcome the effect of δ-T3 treatment further illustrates the robustness of a δ-T3 therapeutic approach.

[2] = system: AOM induced rat colon cancer model; test: AOM induced rat colon cancer model; type: in vivo, Fisher 344 rat
Excerpt: FIGS. 3A, 3B, 3C and 3D show the number of polyps (FIG. 3A) and cancer (FIG. 3C) with H&E stain of representative areas of polyp (FIG. 3B) and cancer (FIG. 3D) following no treatment (NT), treatment with vehicle (V), sulindac, and d-T3 in AOM-induced Fisher 344 rat model of colon carcinogenesis.
To confirm the CRC prevention activity of d-T3, the activity of d-T3 was investigated and compared this with sulindac, another established NSAID with chemoprevention activity against CRC in the AOM induced rat colon cancer model.

[3] = target: T1, hCAS (Homo sapiens, UniProt P55060); test: Competitive affinity-isolation of hCAS in MiaPaCa-2 cell lysate; type: binding; details: excess free compound
T1 construct: endogenous in cells; host or cells: MiaPaCa-2 human pancreatic cancer cells
T1 sequence (P55060 1-971): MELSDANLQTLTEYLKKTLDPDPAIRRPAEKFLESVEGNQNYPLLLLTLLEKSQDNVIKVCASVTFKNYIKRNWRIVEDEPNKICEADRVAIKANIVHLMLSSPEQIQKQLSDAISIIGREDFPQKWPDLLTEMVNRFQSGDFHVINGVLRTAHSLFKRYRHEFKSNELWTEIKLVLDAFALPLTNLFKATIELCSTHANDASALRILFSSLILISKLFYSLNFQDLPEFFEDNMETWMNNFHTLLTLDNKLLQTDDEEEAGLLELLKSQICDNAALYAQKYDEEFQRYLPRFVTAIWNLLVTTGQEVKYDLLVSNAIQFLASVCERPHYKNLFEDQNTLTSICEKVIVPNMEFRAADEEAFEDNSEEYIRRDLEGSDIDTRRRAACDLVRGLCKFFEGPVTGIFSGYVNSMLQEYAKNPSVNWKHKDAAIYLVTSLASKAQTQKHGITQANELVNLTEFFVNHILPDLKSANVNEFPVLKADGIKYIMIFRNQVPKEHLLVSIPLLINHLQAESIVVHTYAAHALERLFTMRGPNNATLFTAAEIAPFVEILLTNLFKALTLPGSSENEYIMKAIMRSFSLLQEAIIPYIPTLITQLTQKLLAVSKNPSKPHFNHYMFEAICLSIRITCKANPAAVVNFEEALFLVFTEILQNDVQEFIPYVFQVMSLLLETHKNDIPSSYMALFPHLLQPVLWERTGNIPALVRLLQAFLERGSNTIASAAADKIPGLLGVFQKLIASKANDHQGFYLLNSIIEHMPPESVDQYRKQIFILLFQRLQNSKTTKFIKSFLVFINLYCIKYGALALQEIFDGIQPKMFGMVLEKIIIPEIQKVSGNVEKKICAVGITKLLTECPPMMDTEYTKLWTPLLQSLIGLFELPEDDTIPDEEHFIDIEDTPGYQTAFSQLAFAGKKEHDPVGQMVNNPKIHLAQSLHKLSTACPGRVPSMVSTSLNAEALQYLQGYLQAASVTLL
Protocol: This experiment used a synthetic biotin-δ-tocotrienol conjugate (shown below to inhibit growth activity of cultured MiaPaca-2 human pancreatic cancer cells) to confirm affinity-isolation of hCAS. To confirm that δ-T3 binds to hCAS in intact cells, biotinylated δ-T3 (B-δ-T3) was prepared by chemically coupling the —OH group of δ-T3 to the —COOH of biotin using a PEG-iodoactamide linker (FIG. 18). […] Affinity-isolation of hCAS was inhibited in the presence of free δ-tocotrienol but not with free δ-tocopherol.

[4] = system: Oct4, Nanog, Sox2, KLF4, c-myc, c-PARP; test: Western blot of stem cell transcription factors and c-PARP in CCSCs; type: cell-based, human
[5] = system: MiaPaCa-2 cell; test: MiaPaCa-2 cell viability at increasing concentrations; type: cell-based, human
[6] = system: β-catenin; test: β-catenin immunofluorescence and Western blot in CCSCs; type: cell-based, human
Excerpt: FIGS. 9A, 9B, 9C, and 9D show quantification of β-catenin in the nucleus and cytoplasm of CCSCs with confocal microscopy (FIGS. 9A & 9B) after treatment with vehicle, aspirin, d-T3, and aspirin+d-T3.
As noted above, stability of the β-catenin complex by inactivation of APC leads to stabilization and nuclear translocation of β-catenin and to transcriptional activation of β-catenin target genes such as c-Myc and cyclin D1. […] Furthermore, d-T3 inhibition of CCSCs is associated with the downregulation of β-catenin, c-Myc, cyclin D1, and survivin as measured by Western blot in CCSCs (FIG. 9D).

[7] = system: intestinal stem cells of ApcMin/+ mice; test: Caspase 3 staining of intestinal crypts in ApcMin/+ mice; type: in vivo; details: small intestinal crypts of ApcMin/+ mice
Excerpt: (§1) Although substantial preclinical evidence exists regarding the preventive activity of d-T3 and g-T3 in various types of cancers, there is no report of d-T3 prevention of colon cancer despite evidence of activity in colon cell lines and xenograft models. […] Treatment with aspirin alone reduced adenoma formation by 38%, and treatment with d-T3 alone reduced adenoma formation by 44%, while treatment with the combination of aspirin and d-T3 reduced adenoma formation by 58%.

[8] = system: ApcMin/+ mice; test: Adenoma (intestinal polyp) formation in ApcMin/+ mice; type: in vivo
Excerpt: as §1, with “FIGS. 1A and 1B show the number of intestinal polyps (FIG. 1A) and H&E staining of polyps (FIG. 1B) in ApcMin/+ mice treated with vehicle (V), aspirin (Asp), d-T3, and combination of aspirin+d-T3. Black dots in FIG. 1B point out polyps in the intestine. Although” for “Although”

[9] = system: HCT-116; test: Apoptosis induction in HCT-116; type: cell-based, human

CC(C)=CCC/C(C)=C/CC/C(C)=C/CC[C@]1(C)CCc2cc(O)cc(C)c2O1 [d-T3, δ-tocotrienol]
cancer cell death versus the hCAS vehicle [1]: induces significant cancer cell death | cancer formation [2]: almost completely blocked | formation of intestinal polyps [2]: significantly inhibited | affinity-isolation of hCAS / hCAS binding to biotin-T3 in presence of free competitor [3]: reduces hCAS binding | affinity-isolation of hCAS / hCAS binding to biotin-T3 in presence of free competitor ([3]; listed as δ-tocotrienol): inhibited | expression of Oct4, Nanog, Sox2, KLF4, and c-myc [4]: downregulation | expression of c-PARP [4]: upregulation | cell killing at 100 μM concentration ([5]; 100 μM): killing almost all cells | effect on cell viability ([5]; increasing concentrations): most potent | β-catenin, c-Myc, cyclin D1, and survivin by Western blot [6]: downregulation | amount of β-catenin translocated to the nucleus ([6]; immunofluorescence staining): significantly decreased | apoptosis detected by caspase 3 staining [7]: markedly induced apoptosis | reduced adenoma formation [8]: 44% | apoptosis [9]: significantly induced apoptosis
